This note sets out measurements from patent US20100197591A1, “4-AMINO-7,8-DIHYDROPYRIDO[4,3-d]PYRIMIDIN-5(6H)-ONE DERIVATIVES” (pfizer Inc, priority 2009, published 2010).

Holding throughout (assay type): biochemical
Assay [1] has as its target T1, Human full-length diacylglycerol:acylCoA acyltransferase 1 (DGAT-1) (Homo sapiens, UniProt O75907).
T1 construct: Human full-length diacylglycerol:acylCoA acyltransferase 1 (DGAT-1) was expressed in Sf9 insect cells; made in house; host or cells: Sf9 insect cells (baculovirus); crude membrane/microsome fraction
T1 sequence (O75907 1-488): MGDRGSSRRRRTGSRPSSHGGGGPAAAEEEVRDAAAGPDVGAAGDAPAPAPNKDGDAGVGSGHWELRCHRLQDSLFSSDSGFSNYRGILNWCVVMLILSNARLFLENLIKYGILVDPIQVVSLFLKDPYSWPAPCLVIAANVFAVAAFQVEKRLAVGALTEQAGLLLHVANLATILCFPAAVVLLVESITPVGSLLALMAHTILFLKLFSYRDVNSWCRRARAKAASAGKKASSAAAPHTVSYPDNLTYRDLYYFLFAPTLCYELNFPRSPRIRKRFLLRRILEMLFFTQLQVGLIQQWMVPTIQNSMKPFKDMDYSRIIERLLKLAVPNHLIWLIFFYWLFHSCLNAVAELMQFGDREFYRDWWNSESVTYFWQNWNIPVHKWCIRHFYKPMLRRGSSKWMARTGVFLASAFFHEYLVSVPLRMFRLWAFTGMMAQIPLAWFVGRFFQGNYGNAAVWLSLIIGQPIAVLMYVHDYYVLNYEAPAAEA
The experiment in a line: DGAT-1 Reduced Microsome Multidose Assay, G7829E Human IC50. As to conditions: crude membrane fraction of Sf9 cells expressing human DGAT-1; [14C]decanoylCoA; terminated with 5 μl of 1.4% phosphoric acid instead of HCl; average where tested more than once. The method, then: (§1) Human full-length diacylglycerol:acylCoA acyltransferase 1 (DGAT-1) was expressed in Sf9 insect cells which are then lysed and a crude membrane fraction (105,000×g pellet) was prepared. The DGAT-1 gene is a human DGAT-1 gene described in J Biol Chem 273:26765 (1998) and U.S. Pat. No. 6,100,077.
(§2) In vitro inhibition of DGAT-1 was measured using a modification, further described below, of the assay methodology described in U.S. Pat. No. 6,994,956 B2.
(§3) The cells were cultured as follows. Sf9 cells (20 L) were infected with 4 mL of DGAT-1 Baculovirus Infected Insect Cells (BIIC) for 72 hours in a Wave Bioreactor System 20/50P (Wave Biotec/GE Healthcare).
(§4) Crude DGAT-1 microsomes were prepared as follows. Cell pellets were washed once with ice-cold Dulbecco's phosphate-buffered saline. Cells were collected in tabletop centrifuge (Beckman GS-6KR), 15 minutes, 2000×g, 4° C. Twenty (20) mL of ice-cold Microsome Buffer (MB) was added per 5 g of cell pellet. The suspension was passed through a microfluidizer 3 times (18K psi). The lysate was transferred to centrifuge tubes and centrifuged for 20 minutes at 5000×g (Beckman-Coulter, Inc. Allegra® 64R High-Speed Refrigerated Benchtop Centrifuge, F0650 rotor) at 4° C. The supernatant was transferred to ultracentrifuge tubes and centrifuged at 125,000×g for 1 hour in a Beckman Ti-45 rotor, 4° C. The supernatant fluid was discarded. The pellet was resuspended in 70 mL of MB by sonication. The microsome concentration was determined using Bio-Rad Protein DC Protein Assay. The microsomes were filter sterilized with a 0.22 μm filter. The samples were portioned, flash frozen and stored at −80° C.
(§5) The Microsome Buffer, used for microsome preparation, was prepared by conventional means and contained 125 mM sucrose, 3 mM imidazole, 0.2 μg/mL aprotinin, 0.2 μg/mL leupeptin and 5 mM dithiothreitol (Cleland's reagent), DGAT-1 activity was measured in 384-well format in a total assay volume of 25 μl that contained, Hepes buffer (50 mM, pH 7.5), MgCl2 (10 mM), bovine serum albumin (0.6 mg/ml), [^14C]decanoylCoA (20 μM, 58 Ci/mol) and membranes (25 μg/ml) into which 1,2 dioleoyl-sn-glycerol (75 μM) in acetone has already been incorporated. Inhibitors in DMSO were pre-incubated with membranes before initiating the DGAT-1 reaction by the addition of decanoylCoA. […] The DMSO concentration was 2.5%. The inhibitors were present at a range of eight concentrations to generate an apparent IC50 for each compound. The eight inhibitor concentration employed ranged from 10 μM to 3 nM (from high to low concentration). Specifically, the eight concentrations used were 10 μM, 3 μM, 1 μM, 300 nM, 100 nM, 30 nM, 10 nM and 3 nM.
(§6) Reaction mixtures were neutralized by the addition of 15 μl of tris(hydroxy-methyl)aminomethane (1M, pH 8.0) and then mixed by trituration with 37.5 μl of Microscint™-E (Perkin Elmer). Plates contents were allowed to partition for 15 to 30 min before ^14C was measured in a scintillation spectrometer (Wallac Microbeta Trilux 1450-030 liquid scintillation counter 12 detector in the top-count DPM mode). Percent inhibition of test compounds was computed as […].
Four separate assays were performed using 4 different methods of analysis. The method of analysis of Assay 1 was the same as Assay 4 (described above) except microsomes were utilized at 25 μg/mL instead of 5 μg/mL. The method of analysis of Assay 2 was the same as Assay 4 (described above) except eleven (11) concentrations of inhibitor were employed instead of eight (8). The method of analysis of Assay 3 was the same as Assay 2 except the compounds were serially diluted in a different laboratory.
Where this DGAT-1 inhibition assay was performed on a compound more than once, an average is provided for that compound.

The target of assay [2] is T1, Human full-length diacylglycerol:acylCoA acyltransferase 1 (DGAT-1). The experiment in a line: DGAT-1 Reduced Microsome Multidose Assay, G7329F Human IC50. Conditions: crude membrane fraction of Sf9 cells expressing human DGAT-1; [14C]decanoylCoA; apparent IC50, average where tested more than once. The procedure, abridged: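 Sf9-expressed full-length DGAT-1 microsomes (25 or 5 μg/mL) with incorporated 1,2-dioleoyl-sn-glycerol (75 μM), pH 7.5 Hepes, 20 μM [14C]decanoylCoA, 2.5% DMSO, inhibitor pre-incubated. Eight (3 nM–10 μM) or eleven concentrations; 14C product by scintillation gives apparent IC50, averaged over repeats.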

Assay [3] shares this target. The experiment in a line: DGAT-1 Reduced Microsome Multidose Assay, G7329E Human IC50. As to conditions: crude membrane fraction of Sf9 cells expressing human DGAT-1; [14C]decanoylCoA; apparent IC50, average where tested more than once. The protocol: as §1, §2, §3, §4, §5, §6
Four separate assays were performed using 4 different methods of analysis. The method of analysis of Assay 1 was the same as Assay 4 (described above) except microsomes were utilized at 25 μg/mL instead of 5 μg/mL. […]

For assay [4] the target is unchanged. The experiment in a line: DGAT-1 Reduced Microsome Multidose Assay, G7329B Human IC50. As to conditions: crude membrane fraction of Sf9 cells expressing human DGAT-1; [14C]decanoylCoA; apparent IC50, average where tested more than once. The method, then: as §1, §2, §3
Crude DGAT-1 microsomes were prepared as follows. Cell pellets were washed once with ice-cold Dulbecco's phosphate-buffered saline. Cells were collected in tabletop centrifuge (Beckman GS-6KR), 15 minutes, 2000×g, 4° C. Twenty (20) mL of ice-cold Microsome Buffer (MB) was added per 5 g of cell pellet. The suspension was passed through a microfluidizer 3 times (18K psi). […] The microsome concentration was determined using Bio-Rad Protein DC Protein Assay. […]
The Microsome Buffer, used for microsome preparation, was prepared by conventional means and contained 125 mM sucrose, 3 mM imidazole, 0.2 μg/mL aprotinin, 0.2 μg/mL leupeptin and 5 mM dithiothreitol (Cleland's reagent), DGAT-1 activity was measured in 384-well format in a total assay volume of 25 μl that contained, Hepes buffer (50 mM, pH 7.5), MgCl2 (10 mM), bovine serum albumin (0.6 mg/ml), [^14C]decanoylCoA (20 μM, 58 Ci/mol) and membranes (25 μg/ml) into which 1,2 dioleoyl-sn-glycerol (75 μM) in acetone has already been incorporated. […]
Reaction mixtures were neutralized by the addition of 15 μl of tris(hydroxy-methyl)aminomethane (1M, pH 8.0) and then mixed by trituration with 37.5 μl of Microscint™-E (Perkin Elmer). Plates contents were allowed to partition for 15 to 30 min before ^14C was measured in a scintillation spectrometer (Wallac Microbeta Trilux 1450-030 liquid scintillation counter 12 detector in the top-count DPM mode). […]

As a reminder, the IC50 is the midpoint of a concentration-inhibition curve. As for `COc1nc(N)c2c(n1)CCN(c1ccc(C(C)(C)c3ncno3)cc1)C2=O` (single isomer, unassigned) [Example 3L], the IC50 in assay [1] turned out to be 67.3 nM; in assay [2], 68.9 nM. On the same counts, the results for `COc1nc(N)c2c(n1)CCN(c1ccc(C(C)(C)c3ncon3)cc1)C2=O` (single isomer, unassigned) [Example 3M, 4-amino-2-methoxy-6-{4-[1-methyl-1-(1,2,4-oxadiazol-3-yl)ethyl]phenyl}-7,8-dihydropyrido[4,3-d]pyrimidin-5(6H)-one] are 55.2 nM and 77.8 nM.

For the molecule `COc1nc(N)c2c(n1)CCN(c1ccc(C(=O)OCC(C)(C)C)cc1)C2=O` [Example 2F, 2,2-dimethylpropyl 4-(4-amino-2-methoxy-5-oxo-7,8-dihydropyrido[4,3-d]pyrimidin-6(5H)-yl)benzoate], the IC50 in assay [1] came to 55.1 nM; in assay [2], 112 nM.

`COc1nc(N)c2c(n1)CCN(c1ccc(C3(C(N)=O)CCC3)cc1)C2=O` [Example 5A, 1-[4-(4-amino-2-methoxy-5-oxo-7,8-dihydropyrido[4,3-d]pyrimidin-6(5H)-yl)phenyl]cyclobutanecarboxamide] gave an IC50 in assay [1] of 78.6 nM. Regarding `COc1nc(N)c2c(n1)CCN(c1ccc(C3(C(N)=O)CCCCC3)cc1)C2=O` [Example 5B, 1-[4-(4-amino-2-methoxy-5-oxo-7,8-dihydropyrido[4,3-d]pyrimidin-6(5H)-yl)phenyl]cyclohexanecarboxamide], the IC50 in assay [1] amounted to 184 nM. Still for that read-out and setting: next, `COc1nc(N)c2c(n1)CCN(c1ccc(C3(C(N)=O)CCCC3)cc1)C2=O` [Example 5C, 1-[4-(4-amino-2-methoxy-5-oxo-7,8-dihydropyrido[4,3-d]pyrimidin-6(5H)-yl)phenyl]cyclopentanecarboxamide]: 217 nM. In the case of `COc1nc(N)c2c(n1)CCN(c1ccc(C(C)(C)C)cc1)C2=O` [Example 6A, 4-amino-6-(4-tert-butylphenyl)-2-methoxy-7,8-dihydropyrido[4,3-d]pyrimidin-5(6H)-one], the figures for the IC50 in assay [2] and in assay [3] were 8.88 nM and 49 nM, respectively. Take `COc1nc(N)c2c(n1)CCN(c1ccc(C(C)C)cc1)C2=O` [Example 6E, 4-amino-6-(4-isopropylphenyl)-2-methoxy-7,8-dihydropyrido[4,3-d]pyrimidin-5(6-H)-one]: the IC50 came to 17.1 nM in assay [2] and 58.5 nM in assay [3]. On the same counts, the results for `COc1nc(N)c2c(n1)CCN(c1ccc([C@H]3CC[C@H](CC#N)CC3)cc1)C2=O` [Example 7C, {trans-4-[4-(4-amino-2-methoxy-5-oxo-7,8-dihydropyrido[4,3-d]pyrimidin-6(5H)-yl)phenyl]cyclohexyl}acetonitrile] are 32.5 nM and 133 nM. `COc1nc(N)c2c(n1)CCN(c1ccc(I)cc1)C2=O` [Example 9E, 4-amino-6-(4-iodophenyl)-2-methoxy-7,8-dihydropyrido[4,3-d]pyrimidin-5(6H)-one]: the IC50 in assay [3] worked out at 124 nM. In assay [1], `COc1nc(N)c2c(n1)CCN(c1ccc3c(c1)CC(C)(C)O3)C2=O` [Example 9M, 4-amino-6-(2,2-dimethyl-2,3-dihydro-1-benzofuran-5-yl)-2-methoxy-7,8-dihydropyrido[4,3-d]pyrimidin-5(6H)-one] showed an IC50 of 1380 nM. As for `Cc1nc(N)c2c(n1)CCN(c1ccc(I)cc1)C2=O` [Example 9Q, 4-amino-6-(4-iodophenyl)-2-methyl-7,8-dihydropyrido[4,3-d]pyrimidin-5(6H)-one], the IC50 was found to be 13700 nM in assay [3] and 5030 nM in assay [4].

In the case of `Cc1nc(N)c2c(n1)CCN(c1ccc(C3CCC(CCO)CC3)cc1)C2=O` (stereo not drawn) [Example 9R, 4-amino-6-{4-[4-(2-hydroxyethyl)cyclohexyl]phenyl}-2-methyl-7,8-dihydropyrido[4,3-d]pyrimidin-5(6H)-one], the IC50 in assay [4] was 1030 nM. The same measure, in the same setting: next, `Cc1nc(N)c2c(n1)CCN(c1ccc(C3CCC(CC#N)CC3)cc1)C2=O` (stereo not drawn) [Example 9T, {4-[4-(4-amino-2-methyl-5-oxo-7,8-dihydropyrido[4,3-d]pyrimidin-6(5H)-yl)phenyl]cyclohexyl}acetonitrile]: 1890 nM.
